Test results as given in patent publication US6060304A, “Method of producing conjugated fatty acids” (Wisconsin Alumni Research Foundation, priority 1998, dated 2000).

Key:
[1] = tested on: linoleate isomerase of L. reuteri PYR8; settings: for Rate of converting: 36-hour PYR8 cells
Experimental: Fatty acids were extracted with chloroform:methanol (2:1) and 4% KCl. Hexadecanoic acid (HDA) was added as an internal standard. The extraction mix was centrifuged at 2000 g for 5 minutes, then the chloroform fraction containing the fatty acids (bottom fraction) was removed and dried down by nitrogen gas. The fatty acids were suspended in 4% HCl in anhydrous methanol, and were methylated in a 60° C. water bath for 20 minutes. Finally, drops of double distilled water (DDW) were added to the methylation tube and hexane was used to re-extract the fatty acid. After washing twice with DDW and dehydrating by sodium sulfate, 1-2 μl of the hexane fraction was injected into a model 5890 series II gas chromatograph fitted with a model 3396A integrator (Hewlett-Packard Company, Avondale, Pa.) for fatty acid analysis. Fatty acid peaks were separated with a fused silica capillary column, 60 m by […] I.D. with a 0.25 μm film thickness (Supelco Park, Bellefonte, Pa.).
Thirty-six-hour cultures were diluted in 0.1M Tris-HCl (pH 8.55) buffer to 1:10, 1:15, 1:20 (w/v). Five ml of each suspension were reacted with 2.0 mg of linoleic acid for 1, 2, or 3 hours at 12° C. At 1:15, five ml were incubated with 1.0 mg, 1.5 mg, 2.0 mg and 3.0 mg of alpha-linolenic acid for 1 hour, or with 2.0 mg of gamma-linolenic acid for 1, 2, 3, 4, or 24 hours at 4° C. Fatty acids were extracted with chloroform:methanol and assayed by the GC method.

[2] = tested on: linoleate isomerase of L. reuteri PYR8; assay: Substrates tested with cells of L. reuteri PYR8, product analysed by GC; format: biochemical, Lactobacillus reuteri PYR8 (ATCC 55739); settings: for Major Products (putative) of the linoleate isomerase: 0.2 mg substrate reacted with 20 mg PYR8 cells, GC; for Activity of the organism / consumption relative to other substrates: effect of extra double bonds at position 6 and/or 15; for Activity as substrate of the Lactobacillus: unsaturated fatty acids lacking double bonds at both positions 9 and 12
Experimental: ^a Each substrate (0.2 mg) was reacted with the cells (20 mg) of L.
reuteri PYR8, and product was analyzed by GC, as described in methods.
Fatty acids were extracted with chloroform:methanol (2:1) and 4% KCl. Hexadecanoic acid (HDA) was added as an internal standard. […] Fatty acid peaks were separated with a fused silica capillary column, 60 m by […] I.D. with a 0.25 μm film thickness (Supelco Park, Bellefonte, Pa.).

mammary cancer = settings: rodents; cited from earlier work
[3] = tested on: carcinogen-induced rat mammary tumors; settings: cited from earlier work
[4] = mouse, rat and chick models; cited from earlier work
[5] = chicks, mice and rats; cited from earlier work
[6] = rabbits fed an atherogenic diet; cited from earlier work
[7] = tested on: epidermal carcinogenesis and forestomach neoplasia; settings: mice; cited from earlier work
atherosclerosis = settings: rabbits and hamsters; cited from earlier work

Molecule: CC/C=C\C/C=C\C/C=C\CCCCCCCC(=O)O [Alpha-linolenic acid]
- Rate of converting [1]: 8.0 mg/hour/gram cells
- Amount of substrate converted in one hour ([1]; dilution 1:15, five ml, 4° C.): 2.5 mg
- Major Products (putative) of the linoleate isomerase [2]: cis9, trans11, cis15
- Activity of the organism / consumption relative to other substrates [2]: promoted

Molecule: CCCCC/C=C\C/C=C\C/C=C\C/C=C\CCCC(=O)O [Arachidonic acid]
- Major Products (putative) of the linoleate isomerase [2]: None
- Activity as substrate of the Lactobacillus [2]: Inactive

Molecule: CCCCC/C=C\C/C=C\C/C=C\CCCCC(=O)O [Gamma-linolenic acid]
- Rate of converting [1]: less than 0.25 mg/hour/gram cells
- Conversion to cis-6, cis-9, trans-11 isomer in 24 hours ([1]; dilution 1:15, 2.0 mg substrate, 4° C.): unable to convert
- Major Products (putative) of the linoleate isomerase [2]: cis6, cis9, trans11
- Activity of the organism / consumption relative to other substrates [2]: reduced

Molecule: CCCCC/C=C\C/C=C\CCCCCCCC(=O)O [Linoleic acid]
- Rate of converting [1]: 3.2 mg/hour/gram cells
- Major Products (putative) of the linoleate isomerase [2]: cis9, trans11 isomer
- Effect on mammary cancer (mammary cancer): associated with enhancing mammary cancer

Molecule: CCCCCCCC/C=C\CCCCCCCC(=O)O [Oleic acid]
- Major Products (putative) of the linoleate isomerase [2]: None
- Activity as substrate of the Lactobacillus [2]: Inactive

Molecule: Conjugated linoleic acid [CLA]
- Inhibition of carcinogen-induced mammary tumors [3]: effective inhibitor
- Body fat [4]: reduces body fat
- Prevention of adverse effects caused by immune stimulation [5]: can prevent adverse effects
- Ratio of LDL-cholesterol to HDL-cholesterol [6]: can decrease
- Inhibition of epidermal carcinogenesis and forestomach neoplasia [7]: effective inhibitor
- Inhibition of atherosclerosis (atherosclerosis): inhibits atherosclerosis

Molecule: Octadecanoic acid
- Major Products (putative) of the linoleate isomerase [2]: None
- Activity as substrate of the Lactobacillus [2]: Inactive
